According to the supplement of paper PMC10307832:

Assays:
BAY61-3606 = compound: COC1=C(C=C(C=C1)C2=CC3=NC=CN3C(=N2)NC4=C(C=CC=N4)C(=O)N)OC [BAY61-3606]; assay: relative viability (nuclei count vs DMSO), 5 days (fraction); higher = more cells survive
Method in brief: (§1)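 Lung cancer cell lines in 1536-well plates were kept overnight at 37 °C, then pinned with five library-drug doses (not always all listed) spaced by √10 on vehicle-anchored plates. After 5 days without medium change, cells were fixed, permeabilised and Hoechst-stained in one step, imaged at 4×, and nuclei were counted with MetaXpress. Viability is treated-well nuclei divided by vehicle-well nuclei, taken as the median over plates. Plates passed only with control CV below 25% and at least one doubling.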

Doxorubicin = compound: COc1cccc2c1C(=O)c1c(O)c3c(c(O)c1C2=O)C[C@@](O)(C(=O)CO)C[C@@H]3O[C@H]1C[C@H](N)[C@H](O)[C@H](C)O1 [Doxorubicin]; assay: as above
Method in brief: as §1

Row | Cell Line | relative viability (BAY61-3606; 0.02 µM) | relative viability (BAY61-3606; 0.06325 µM) | relative viability (BAY61-3606; 0.2 µM) | relative viability (BAY61-3606; 0.6325 µM) | relative viability (BAY61-3606; 2 µM) | relative viability (Doxorubicin; 0.001 µM) | relative viability (Doxorubicin; 0.003162 µM) | relative viability (Doxorubicin; 0.01 µM) | relative viability (Doxorubicin; 0.03162 µM) | relative viability (Doxorubicin; 0.1 µM)
1 | 201T | 0.996 | 0.959 | 1 | 1.01 | 0.95 | 0.867 | 0.985 | 0.987 | 0.978 | 0.942
2 | A549 | 1.01 | 1.07 | 0.959 | 1.05 | 0.857 | 1 | 0.991 | 0.869 | 0.395 | 0.503
3 | A-427 | 1.08 | 1.01 | 0.963 | 1.03 | 0.892 | 0.969 | 1.03 | 0.936 | 0.81 | 0.757
4 | ABC-1 | 1.04 | 0.942 | 0.986 | 1.03 | 0.854 | 0.943 | 1.01 | 0.811 | 0.414 | 0.307
5 | BEN | 1.05 | 0.891 | 1.1 | 1.07 | 1.05 | 1.19 | 1.03 | 0.985 | 0.683 | 0.85
6 | CAL-12T | 1.02 | 1.07 | 0.938 | 0.99 | 0.628 | 0.973 | 1.05 | 0.926 | 0.541 | 0.349
7 | COR-L23 | 1.05 | 1.09 | 1.06 | 1 | 0.909 | 0.998 | 1.05 | 0.932 | 0.718 | 0.235
8 | COR-L 105 | 0.932 | 0.892 | 0.951 | 0.852 | 0.568 | 0.951 | 0.853 | 0.827 | 0.706 | 0.503
9 | Calu-6 | 1.07 | 1.05 | 0.979 | 0.963 | 0.807 | 0.966 | 1.02 | 0.929 | 0.566 | 0.431
10 | ChaGo-K-1 | 0.97 | 0.942 | 0.918 | 0.949 | 0.945 | 1.06 | 1.09 | 0.923 | 0.892 | 0.563
11 | EBC-1 | 1.04 | 0.999 | 0.953 | 1.04 | 0.888 | 1 | 1.09 | 1.01 | 0.702 | 0.534
12 | EKVX | 1.04 | 1 | 0.884 | 1.07 | 0.99 | 1.01 | 1.03 | 0.963 | 0.951 | 0.902
13 | EMC-BAC-2 | 1.04 | 1 | 0.921 | 0.988 | 0.942 | 1.34 | 0.844 | 0.748 | 0.469 | 0.326
14 | EPLC-272H | 1.02 | 1.05 | 0.894 | 0.873 | 0.729 | 0.84 | 0.949 | 0.932 | 0.792 | 0.964
15 | H3255 | 0.976 | 0.905 | 0.928 | 1.16 | 0.898 | 0.892 | 0.993 | 0.931 | 0.849 | 0.727
16 | HARA | 1.03 | 0.927 | 0.945 | 0.953 | 0.866 | 0.983 | 1.12 | 1.07 | 0.945 | 0.955
17 | HCC-15 | 1 | 0.971 | 0.994 | 0.988 | 0.896 | 0.807 | 1.08 | 0.975 | 0.811 | 0.654

Row | Cell Line | relative viability (BAY61-3606; 0.02 µM) | relative viability (BAY61-3606; 0.06325 µM) | relative viability (BAY61-3606; 0.2 µM) | relative viability (BAY61-3606; 0.6325 µM) | relative viability (BAY61-3606; 2 µM) | relative viability (Doxorubicin; 0.001 µM) | relative viability (Doxorubicin; 0.003162 µM) | relative viability (Doxorubicin; 0.01 µM) | relative viability (Doxorubicin; 0.03162 µM) | relative viability (Doxorubicin; 0.1 µM)
18 | HCC-44 | 0.947 | 0.989 | 1.03 | 1.03 | 1.05 | 0.998 | 0.992 | 0.941 | 1.03 | 0.894
19 | HCC-78 | 1.04 | 0.934 | 0.973 | 0.985 | 1.08 | 1 | 0.999 | 0.851 | 0.955 | 0.954
20 | HCC-366 | 0.988 | 1.03 | 1.01 | 0.96 | 0.903 | 0.909 | 0.991 | 1.02 | 0.959 | 0.587
21 | HCC-827 | 1.02 | 1.01 | 1.06 | 1.1 | 0.994 | 1.01 | 1.01 | 1.04 | 1.03 | 1
22 | HOP-62 | 0.969 | 1 | 0.954 | 0.956 | 0.964 | 0.937 | 1.04 | 1 | 1.04 | 1.02
23 | IA-LM | 0.984 | 0.864 | 0.956 | 1.03 | 0.86 | 0.902 | 1.04 | 0.889 | 0.749 | 0.508
24 | LC-2-ad | 1.07 | 1.01 | 0.932 | 1.04 | 0.841 | 0.883 | 0.909 | 0.948 | 0.943 | 0.793
25 | LCLC-97TM1 | 1.06 | 1.07 | 1 | 0.892 | 1.01 | 0.909 | 1.11 | 0.909 | 0.822 | 0.749
26 | LCLC-103H | 1.07 | 0.992 | 0.993 | 1.03 | 0.987 | 0.966 | 1.04 | 0.981 | 1.02 | 0.957
27 | LK-2 | 1.08 | 0.939 | 1.06 | 1.09 | 0.923 | 0.903 | 1.08 | 0.829 | 0.788 | 1.08
28 | LOU-NH91 | 0.991 | 0.816 | 0.965 | 0.996 | 0.862 | 0.692 | 0.948 | 1.05 | 0.914 | 0.761
29 | LU99A | 1.04 | 0.953 | 1.01 | 0.967 | 0.702 | 0.938 | 1.02 | 0.893 | 0.838 | 0.813
30 | LXF-289 | 0.95 | 1.07 | 0.874 | 1.04 | 1.05 | 0.952 | 1.03 | 1.01 | 1.05 | 1.01
31 | NCI-H23 | 1.11 | 1.03 | 0.78 | 0.947 | 0.789 | – | 1.06 | 0.978 | 0.654 | 0.532
32 | NCI-H322M | 1.04 | 0.919 | 1 | 0.921 | 0.843 | 1 | 0.887 | 0.976 | 0.904 | 0.568
33 | NCI-H358 | 0.954 | 0.947 | 0.87 | 0.864 | 0.369 | 0.975 | 1.04 | 0.761 | 0.235 | 0.199
